Experimental data: patent US6733777B2, “Cationic reagents of transfection” (Qiagen GmbH, priority 1996, dated 2004)
Read-outs that look alike come from different tables or passages of the source. Marks after values point to notes of the source that are not given here.

Key:
[1] = system: Huh7 cells; conditions: Huh7, liposome with DOPE, 0.5 μg pCMVβ
Protocol: The resulting liposomes were used to transfect Huh7 cells in vitro with the reporter plasmid pCMVβ (Clontech). Transfection efficiencies, as obtained by OD measurements after cell-lysis and β-Gal activity assay, were compared to efficiencies obtained in parallel with a commercially available liposome-preparation (Lipofectamine, Gibco LTI) and given as percentage of Lipofectamine efficiency. For each transfection, 0.5 μg of pCMVβ (isolated with EndoFree, QIAGEN) was used per well of a 96 well plate. The DNA was diluted to 50 μl with DMEM medium (Gibco LTI) and combined with 1, 2, 3 and 4 μl of the liposome preparations subsequently diluted to 50 μl with DMEM medium. DNA and liposome solutions were mixed and applied to the cells for 6 hours at 37° C., 5% CO2. Afterwards, medium was changed to DMEM containing 10% fetal calf serum. Cells were lysed after 48 h incubation at 37° C., 5% CO2. Twofold determinations each were performed. The values were averaged and the highest efficiency (optimum) within a row was given as percentage value of the highest efficiency (optimum) obtained with Lipofectamine.

[2] = system: HeLaS3 cells; experiment: Transfection of HeLaS3 cells with pCMVβ, β-Gal activity assay (variation of counter ion); format: cell-based; conditions: 10-2-10 cytofectin with the given counter ion; for Results (%) (optimal transfection efficiency as percentage of the highest efficiency obtained by Lipofectamine): liposome with DOPE, 0.5 μg pCMVβ; for transfection efficiency compared with Lipofectamine (in words) / ranking of transfection efficiency among the counter ions (in words): liposomes with DOPE
Protocol: Liposomes were used to transfect HeLaS3 cells in vitro with the reporter plasmid pCMVβ (Clontech). […] Cells were incubated for 48 hours at 37° C., 5% CO2 and then lysed.
In similar studies in HeLaS3 cells, the same vector was transfected with liposomes comprising bromide counter ions and the cytofectin, 10-2-10 Ethandiyl-1,2-bis(decyl dimethylammonium).

[3] = system: HeLaS3 cells; experiment: Transfection of HeLaS3 cells with pCMVβ, β-Gal activity assay (cytofectins having three ammonium groups); format: cell-based; conditions: liposome with DOPE, 0.5 μg pCMVβ
Protocol: (§1) N,N′,N″-trialkyl-N,N,N′,N″,N″-pentamethyl-bis-(2-ammonioethyl)ammoniumbromide Liposomes comprising compound (3) [synthesis according to Example 1B] and DOPE were prepared at 60° C., using DOPE without sonication.
(§2) Cells were incubated for 48 hours at 37° C., 5% CO2 and then lysed.
(§3) The results below (Table 7) indicate the optimal transfection efficiency of the reporter plasmid pCMVβ using the above-mentioned liposomes as a percentage of the highest transfection efficiency obtained by Lipofectamine. R indicates the number of carbons in the alkyl chain. Concentration of DOPE in each liposome may be calculated by multiply the X(DOPE) value by […].

[4] = system: COS7 cells; experiment: Transfection of COS7 cells with pCMVβ, β-Gal activity assay (cytofectins having three ammonium groups); format: cell-based; conditions: liposome with DOPE, 0.5 μg pCMVβ
Protocol: as §1, §2, §3

[5] = X(DOPE) 0.50, without sonication
[6] = X(DOPE) 0.60, without sonication
[7] = X(DOPE) 0.70, without sonication
[8] = X(DOPE) 0.80, without sonication
[9] = X(DOPE) 0.5, without sonication
[10] = X(DOPE) 0.6, without sonication
[11] = X(DOPE) 0.7, without sonication
[12] = X(DOPE) 0.8, without sonication

Row | Compound | Results (%) (optimal transfection efficiency as percentage of the highest efficiency obtained by Lipofectamine) [2, 5] | Results (%) (optimal transfection efficiency as percentage of the highest efficiency obtained by Lipofectamine) [2, 6] | Results (%) (optimal transfection efficiency as percentage of the highest efficiency obtained by Lipofectamine) [2, 7] | Results (%) (optimal transfection efficiency as percentage of the highest efficiency obtained by Lipofectamine) [2, 8] | Results HeLaS3 (%) (optimal transfection efficiency as percentage of the highest efficiency obtained by Lipofectamine) [3, 9] | Results HeLaS3 (%) (optimal transfection efficiency as percentage of the highest efficiency obtained by Lipofectamine) [3, 10] | Results HeLaS3 (%) (optimal transfection efficiency as percentage of the highest efficiency obtained by Lipofectamine) [3, 11] | Results HeLaS3 (%) (optimal transfection efficiency as percentage of the highest efficiency obtained by Lipofectamine) [3, 12] | Results COS7 (%) (optimal transfection efficiency as percentage of the highest efficiency obtained by Lipofectamine) [4, 9] | Results COS7 (%) (optimal transfection efficiency as percentage of the highest efficiency obtained by Lipofectamine) [4, 10] | Results COS7 (%) (optimal transfection efficiency as percentage of the highest efficiency obtained by Lipofectamine) [4, 11] | Results COS7 (%) (optimal transfection efficiency as percentage of the highest efficiency obtained by Lipofectamine) [4, 12] | further results
1 | Ethanediyl-1,2-bis(dodecyl dimethylammonium bromide) [12-2-12] | – | – | – | – | – | – | – | – | – | – | – | – | Result (%) (transfection efficiency as percentage of Lipofectamine efficiency) [1, 5]: 70%; Result (%) (transfection efficiency as percentage of Lipofectamine efficiency) [1, 6]: 127%; Result (%) (transfection efficiency as percentage of Lipofectamine efficiency) [1, 7]: 138%; Result (%) (transfection efficiency as percentage of Lipofectamine efficiency) [1, 8]: 89%
2 | CCCCCCCCCC[N+](C)(C)CC[N+](C)(C)CCCCCCCCCC.O=S(=O)([O-])[O-] [sulfate, ethanediyl-1,2-bis(dimethyldecylammonium sulfate)] | 879% | 927% | 265 | 1201 | – | – | – | – | – | – | – | – | transfection efficiency compared with Lipofectamine (in words) [2]: higher transfection efficiency values than transfections with Lipofectamine
3 | CCCCCCCCCC[N+](C)(C)CC[N+](C)(CCCCCCCCCC)CC[N+](C)(C)CCCCCCCCCC.[Br-].[Br-].[Br-] [R = 10, N,N′,N″-tridecyl-N,N,N′,N″,N″-pentamethyl-bis-(2-ammonioethyl)-ammoniumbromide] | – | – | – | – | 231 | 222 | 52 | 47 | 11 | 9 | 16 | 20 | –
4 | Ethanediyl-1,2-bis(hexadecyl dimethylammonium bromide) [16-2-16] | – | – | – | – | – | – | – | – | – | – | – | – | Result (%) (transfection efficiency as percentage of Lipofectamine efficiency) [1, 5]: 104%; Result (%) (transfection efficiency as percentage of Lipofectamine efficiency) [1, 6]: 124%; Result (%) (transfection efficiency as percentage of Lipofectamine efficiency) [1, 7]: 126%; Result (%) (transfection efficiency as percentage of Lipofectamine efficiency) [1, 8]: 169%
5 | CCCCCCCCCCCCCC[N+](C)(C)CC[N+](C)(CCCCCCCCCCCCCC)CC[N+](C)(C)CCCCCCCCCCCCCC.[Br-].[Br-].[Br-] [R = 14, N,N′,N″-tritetradecyl-N,N,N′,N″,N″-pentamethyl-bis-(2-ammonioethyl) ammoniumbromide] | – | – | – | – | 7 | 7 | 9 | 35 | 8 | 9 | 12 | 58 | –
6 | CCCCCCCCCC[N+](C)(C)CC[N+](C)(C)CCCCCCCCCC.O=C([O-])C(=O)[O-] [oxalate, Ethanediyl-1,2-bis(decyldimethylammonium) oxalate] | 275% | 0% | 0 | 0 | – | – | – | – | – | – | – | – | –
7 | Ethanediyl-1,2-bis(decyl dimethylammonium) thiosulfate | 1552% | 1915% | 605 | 844 | – | – | – | – | – | – | – | – | transfection efficiency compared with Lipofectamine (in words) [2]: higher transfection efficiency values than transfections with Lipofectamine
8 | Ethanediyl-1,2-bis(tetradecyl dimethylammonium bromide) [14-2-14] | – | – | – | – | – | – | – | – | – | – | – | – | Result (%) (transfection efficiency as percentage of Lipofectamine efficiency) [1, 5]: 48%; Result (%) (transfection efficiency as percentage of Lipofectamine efficiency) [1, 6]: 74%; Result (%) (transfection efficiency as percentage of Lipofectamine efficiency) [1, 7]: 98%; Result (%) (transfection efficiency as percentage of Lipofectamine efficiency) [1, 8]: 157%
9 | CCCCCCCCCCCC[N+](C)(C)CC[N+](C)(CCCCCCCCCCCC)CC[N+](C)(C)CCCCCCCCCCCC.[Br-].[Br-].[Br-] [R = 12, N,N′,N″-tridodecyl-N,N,N′,N″,N″-pentamethyl-bis-(2-ammonioethyl)-ammoniumbromide] | – | – | – | – | 0 | 9 | 17 | 63 | 3 | 5 | 8 | 29 | –
10 | Ethanediyl-1,2-bis(decyl dimethylammonium) iodide | > 3230* % | > 3230* % | 686 | 457 | – | – | – | – | – | – | – | – | ranking of transfection efficiency among the counter ions (in words) [2]: highest transfection efficiencies; transfection efficiency compared with Lipofectamine (in words) [2]: higher transfection efficiency values than transfections with Lipofectamine
11 | CCCCCCCCCC[N+](C)(C)CC[N+](C)(C)CCCCCCCCCC.O=P([O-])(O)O.O=P([O-])(O)O [dihydrogenphosphate, Ethanediyl-1,2-bis(decyldimethylammonium) dihydrogenphosphate] | 1966% | > 3230* % | 580 | 615 | – | – | – | – | – | – | – | – | ranking of transfection efficiency among the counter ions (in words) [2]: highest transfection efficiencies; transfection efficiency compared with Lipofectamine (in words) [2]: higher transfection efficiency values than transfections with Lipofectamine
12 | CCCCCCCCCCCCCCCC[N+](C)(C)CC[N+](C)(CCCCCCCCCCCCCCCC)CC[N+](C)(C)CCCCCCCCCCCCCCCC.[Br-].[Br-].[Br-] [R = 16, N,N′,N″-trihexadecyl-N,N,N′,N″,N″-pentamethyl-bis-(2-ammonioethyl)-ammoniumbromide] | – | – | – | – | 31 | 39 | 70 | 75 | 18 | 16 | 44 | 38 | –
13 | CCCCCCCCCCCCCCCCCC[N+](C)(C)CC[N+](C)(CCCCCCCCCCCCCCCCCC)CC[N+](C)(C)CCCCCCCCCCCCCCCCCC.[Br-].[Br-].[Br-] [R = 18, N,N′,N″-trioctadcyl-N,N,N′,N″,N″-pentamethyl-bis-(2-ammonioethyl)-ammoniumbromide] | – | – | – | – | 65 | 61 | 80 | 61 | 20 | 34 | 79 | 93 | –
14 | Ethanediyl-1,2-bis(octadecyl dimethylammonium bromide) [18-2-18] | – | – | – | – | – | – | – | – | – | – | – | – | Result (%) (transfection efficiency as percentage of Lipofectamine efficiency) [1, 5]: 82%; Result (%) (transfection efficiency as percentage of Lipofectamine efficiency) [1, 6]: 68%; Result (%) (transfection efficiency as percentage of Lipofectamine efficiency) [1, 7]: 105%; Result (%) (transfection efficiency as percentage of Lipofectamine efficiency) [1, 8]: 115%
